SMILES strings stand for the structures.

One experiment concerns the target human CB2 (Homo sapiens (Human), UniProt P34972). Description: Radioligand binding assay, human CNR2 (CB2) receptor, [3H]-CP-55,940. To be noted: membrane preparations of HEK cells expressing human CNR2; 2.6 nM [3H]-CP-55,940. As for the experimental part:
(§1) Radioligand Binding Assay
(§2) The affinity of the compounds of the invention for cannabinoid receptors was determined using recommended amounts of membrane preparations (PerkinElmer) of human embryonic kidney (HEK) cells expressing the human CNR1 or CNR2 receptors in conjunction with 1.5 or 2.6 nM [3H]-CP-55,940 (Perkin Elmer) as radioligand, respectively. Binding was performed in binding buffer (50 mM Tris, 5 mM MgCl2, 2.5 mM EDTA, and 0.5% (wt/vol) fatty acid free BSA, pH 7.4 for CB1 receptor and 50 mM Tris, 5 mM MgCl2, 2.5 mM EGTA, and 0.1% (wt/vol) fatty acid free BSA, pH 7.4 for CB2 receptor) in a total volume of 0.2 mL for 1 h at 30° C. shaking. The reaction was terminated by rapid filtration through microfiltration plates coated with 0.5% polyethylenimine (UniFilter GF/B filter plate; Packard). Bound radioactivity was analyzed for Ki using nonlinear regression analysis (Activity Base, ID Business Solution, Limited), with the Kd values for [^3H]CP55,940 determined from saturation experiments.
The compounds according to formula (I) have an activity in the above assay (Ki) particularly of 0.5 nM to 10 μM, more particularly of 0.5 nM to 3 μM and most particularly of 0.5 nM to 100 nM.

Another experiment concerns the target human CB1 (Homo sapiens (Human), UniProt P21554). Description: Radioligand binding assay, human CNR1 (CB1) receptor, [3H]-CP-55,940. To be noted: membrane preparations of HEK cells expressing human CNR1; 1.5 nM [3H]-CP-55,940. As for the experimental part: as §1, §2

Chain of human CB1 (P21554 whole entry): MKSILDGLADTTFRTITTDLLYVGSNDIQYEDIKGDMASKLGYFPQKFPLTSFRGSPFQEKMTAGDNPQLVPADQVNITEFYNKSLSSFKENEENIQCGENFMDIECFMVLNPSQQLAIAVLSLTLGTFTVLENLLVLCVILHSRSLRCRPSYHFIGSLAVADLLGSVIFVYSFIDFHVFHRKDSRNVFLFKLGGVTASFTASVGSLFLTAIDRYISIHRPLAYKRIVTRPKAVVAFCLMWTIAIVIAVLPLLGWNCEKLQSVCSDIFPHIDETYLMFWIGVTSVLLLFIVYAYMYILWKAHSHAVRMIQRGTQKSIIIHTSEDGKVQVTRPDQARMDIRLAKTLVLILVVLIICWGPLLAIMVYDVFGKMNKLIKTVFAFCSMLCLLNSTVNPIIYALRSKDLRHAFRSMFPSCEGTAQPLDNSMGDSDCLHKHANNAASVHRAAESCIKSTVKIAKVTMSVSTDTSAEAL
Chain of human CB2 (P34972 whole entry): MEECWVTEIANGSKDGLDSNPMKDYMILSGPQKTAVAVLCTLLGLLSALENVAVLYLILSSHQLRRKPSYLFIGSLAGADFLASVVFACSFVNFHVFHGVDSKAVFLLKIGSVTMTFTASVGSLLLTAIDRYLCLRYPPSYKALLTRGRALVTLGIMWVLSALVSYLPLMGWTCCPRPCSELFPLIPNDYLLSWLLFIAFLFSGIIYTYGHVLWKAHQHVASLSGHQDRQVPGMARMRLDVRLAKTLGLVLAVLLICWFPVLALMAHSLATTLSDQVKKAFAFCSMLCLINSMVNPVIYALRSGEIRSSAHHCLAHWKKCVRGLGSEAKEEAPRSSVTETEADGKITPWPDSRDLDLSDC

Regarding `C#Cc1cccc(C2(C(F)(F)F)N=N2)c1Cn1nc2nc(C(C)(C)C)nc(N3CC[C@H](O)C3)c2n1` [Example 6, (3S)-1-[5-tert-Butyl-2-[[2-ethynyl-6-[3-(trifluoromethyl)diazirin-3-yl]phenyl]methyl]triazolo[4,5-d]pyrimidin-7-yl]pyrrolidin-3-ol], the values for the Ki on human CB2 and on human CB1 were 99.2 nM and over 10000 nM, respectively.
On to `C#Cc1cccc(C2(C(F)(F)F)N=N2)c1Cn1nc2nc(C(F)(F)c3ccccc3)nc(N3CCC(F)(F)C3)c2n1` [Example 4, 5-[Difluoro(phenyl)methyl]-7-(3,3-difluoropyrrolidin-1-yl)-2-[[2-ethynyl-6-[3-(trifluoromethyl)diazirin-3-yl]phenyl]methyl]triazolo[4,5-d]pyrimidine], for which the Ki was 1070 nM at human CB2 and over 10000 nM on human CB1.
In the case of `C#CCCC1(CCNC(=O)c2nonc2Cn2nc3nc(C(C)(C)C)nc(N4CC[C@H](O)C4)c3n2)N=N1` [Example 3, 4-({5-tert-Butyl-7-[(3S)-3-hydroxypyrrolidin-1-yl]-2H-[1,2,3]triazolo[4,5-d]pyrimidin-2-yl}methyl)-N-{2-[3-(but-3-yn-1-yl)-3H-diaziren-3-yl]ethyl}-1,2,5-oxadiazole-3-carboxamide], the Ki is 2860 nM at human CB2 and over 10000 nM on human CB1.
As for `C#Cc1cccc(C2(C(F)(F)F)N=N2)c1Cn1nc2nc(C(C)(C)C)nc(N3CCC(F)(F)C3)c2n1` [Example 5, 5-tert-Butyl-7-(3,3-difluoropyrrolidin-1-yl)-2-[[2-ethynyl-6-[3-(trifluoromethyl)diazirin-3-yl]phenyl]methyl]triazolo[4,5-d]pyrimidine], the Ki on human CB2 stood at 81.4 nM; on human CB1, 583 nM.
Turning to `C#CCCC1(CCNC(=O)c2nonc2Cn2nc3nc(C(C)(C)C)nc(N4CCC(F)(F)C4)c3n2)N=N1` [Example 2, 4-{[5-tert-Butyl-7-(3,3-difluoropyrrolidin-1-yl)-2H-[1,2,3]triazolo[4,5-d]pyrimidin-2-yl]methyl}-N-{2-[3-(but-3-yn-1-yl)-3H-diaziren-3-yl]ethyl}-1,2,5-oxadiazole-3-carboxamide], the Ki at human CB2 was 932 nM; on human CB1 it was over 10000 nM.
The like results for `C#Cc1cccc(C2(C(F)(F)F)N=N2)c1Cn1nc2nc(C(F)(F)c3ccccc3)nc(N3CC[C@H](O)C3)c2n1` [Example 7, (3S)-1-[5-[Difluoro(phenyl)methyl]-2-[[2-ethynyl-6-[3-(trifluoromethyl)diazirin-3-yl]phenyl]methyl]triazolo[4,5-d]pyrimidin-7-yl]pyrrolidin-3-ol] were, in that order, 358 nM and 5460 nM.

Values taken from patent US10457686B2, “[1,2,3]triazolo[4,5-D]pyrimidine derivatives” (Hoffmann-La Roche Inc., priority 2016, dated 2019).
